Source: patent publication US10485785B2, “Method for producing fine powder and the fine powder produced by the same” (Moriroku Chemicals Company, Ltd., priority 2012, dated 2019)

What was measured:
Format in all cases: physicochemical
[1] = crystalline properties by powder X-ray diffractometry and differential scanning calorimetry
Experimental: The pulverized particles were dispersed by compressed air (0.4 MPa) and then, the dry particle size distribution was measured by a laser diffraction apparatus for measuring particle size distribution (LMS-30, SEISHIN ENTERPRISE CO., LTD.). On the other hand, the pulverized particles were dispersed in purified water by ultrasonic dispersion (30 seconds) and then, the wet particle size distribution was measured by a laser diffraction apparatus for measuring particle size distribution (SALD-2100, SHIMADZU CORPORATION). (3) Crystalline Properties The crystalline states of the bulk powder and the pulverized particles were measured by a X-ray powder diffraction apparatus (RAD-2VC, Rigaku Corporation) and a differential scanning calorimeters (DSC-60, SHIMADZU CORPORATION). […] FIG. 34 represents the results of powder X-ray diffractometry (XRPD) of the original bulk of phenytoin (OriB), the phenytoin (Jet) pulverized by the dry method jet mill, and the phenytoin (LN2) pulverized by the ultra low temperature medium grinding apparatus (LN2 bead mill) according to the present invention, which were measured by a powder X-ray diffractometry device (RAD-2VC, Rigaku Corporation). […]

[2] = particle size distribution by laser diffraction (dry and wet method)
Experimental: The pulverized particles were dispersed by compressed air (0.4 MPa) and then, the dry particle size distribution was measured by a laser diffraction apparatus for measuring particle size distribution (LMS-30, SEISHIN ENTERPRISE CO., LTD.). On the other hand, the pulverized particles were dispersed in purified water by ultrasonic dispersion (30 seconds) and then, the wet particle size distribution was measured by a laser diffraction apparatus for measuring particle size distribution (SALD-2100, SHIMADZU CORPORATION). (3) Crystalline Properties The crystalline states of the bulk powder and the pulverized particles were measured by a X-ray powder diffraction apparatus (RAD-2VC, Rigaku Corporation) and a differential scanning calorimeters (DSC-60, SHIMADZU CORPORATION). […] As stated above, the dry method particle size distribution was measured by the laser diffraction scattering method (Dry method), while the wet method particle size distribution was measured by the laser diffraction method (Wet method). FIG. 32 represents the particle distribution of the bulk powder of phenytoin (OriB), the particle distribution of the phenytoin (Jet) pulverized by the dry method jet mill, and the particle distribution of the phenytoin (LN2) pulverized by the ultra low temperature medium grinding apparatus (LN2 bead mill) according to the present invention, wherein all the particle distributions were the results measured by the aforementioned dry method (Dry method). FIG. 33 represents the particle distribution of the bulk powder of phenytoin (OriB), the particle distribution of the phenytoin (Jet) pulverized by the dry method jet mill, and the particle distribution of the phenytoin (LN2) pulverized by the ultra low temperature medium grinding apparatus (LN2 bead mill) according to the present invention, wherein all the particle distribution were the results measured by the aforementioned wet method (Wet method). […]

[3] = dissolution test, pharmacopoeia second law (paddle method); settings: 66.7 mg sample suspended in water with 0.1%(w/v) Tween80, 900 mL test liquid, 75 rpm
Experimental: In order to verify the degree of improvement of solubility of the concurrently pulverized materials, which was obtained by concurrently pulverizing the test compound (phenytoin) made by example 5 and the additive (Hypromellose-Acetate-Succinate (HPMCAS)), the dissolution test was carried out as follows. […] Then the suspension was put into a 900 mL test liquid (50 Mm phosphate buffer solution, pH6.8) and examined under the condition of 75 rpm in compliance with the pharmacopoeia second law (paddle method). A sample consisting of only a compound (phenytoin) to be pulverized was individually pulverized under the conditions shown in Example 5 to obtain a pulverized material, which was used to carry out the dissolution test as follows. A 66.7 mg sample of the pulverized material was suspended in the water, which contains a 0.1%(w/v) Tween80, to obtain a suspension. Then the suspension was put into the 900 mL test liquid and examined under the condition of 75 rpm in compliance with the pharmacopoeia second law (paddle method). […] Before the dissolution test of reference example 1 was carried out, the pulverized material prepared in reference example 1 was mixed with commercially available additives (lactose and L-HPC) in a vessel by hand. Then, the dissolution test was performed as for a mixture of the pulverized material and the additives.

[4] = observation by scanning electron microscope (SEM); settings: pulverized by the LN2 bead mill, SEM FIG. 2(B)
From the text: The exterior appearance of pulverized particles on which platinum is deposited was observed by a scanning electron microscope (JSM-6060, JEOL LTD.).

## O=C1NC(=O)C(c2ccccc2)(c2ccccc2)N1 [phenytoin (LN2), phenytoin]
[1]; XRPD and DSC, before and after pulverization
  crystalline transformation / crystalline descent: crystalline descent was not found
[2]
  rate of submicron size particles relative to particles pulverized by the dry method: three and a half times
[2]; measured up to
  percentage of the mass consisting of particles of 1 μm or below (rate of submicron size particles): up to 32%

## O=C1NC(=O)C(c2ccccc2)(c2ccccc2)N1 [Reference example 1, phenytoin]
[3]
  solubility of the pulverized particles in dissolution test: not improved, or rather became worse
[2]; conditions of Example 5
  particle diameter after individual pulverization: ≤ 0.1 μm

## O=C1NC(=O)C(c2ccccc2)(c2ccccc2)N1 [phenytoin]
[4]
  dimension of the majority of the particles: ≤ 1 μm

## O=C1NC(=O)C(c2ccccc2)(c2ccccc2)N1 [phenytoin (Jet), phenytoin]
[1]; from ΔH value versus original bulk, DSC
  degree of crystallinity: 81%
